Test results: US20220313640A1 (Concert Pharmaceuticals, Inc., priority 2019, published 2022)

Experiments:
[1] = Pharmacokinetic profile of Compound 100 in male Sprague-Dawley rats: plasma, hippocampus and cortex concentration after 30 mg/kg PO; type: in vivo; details: fasted, 1 hr post dose, mean
Protocol: The mean plasma, hippocampus, and cortex concentrations at 1 hour were 19200 ng/mL, 674 ng/g, and 754 ng/g, respectively. The mean plasma, hippocampus, and cortex concentrations at 6 hours were 1780 ng/mL, 1385 ng/g, and 936 ng/g, respectively.

[2] = Single Ascending Dose (SAD) study plasma PK in healthy volunteers; type: in vivo, human; details: for half-life / AUC(0-inf) / Cmax / Tmax: human, plasma; for Tmax: median
Protocol: The 0.5, 2, 3, and 4 g doses were evaluated under fasted conditions (after an overnight fast) while the 1 g dose was evaluated under both fasted and fed conditions (within 30 minutes of consumption of a meal) in a crossover design. […] Blood samples for PK analysis were obtained at several time points after dose administration. Safety assessments included monitoring of adverse events and clinical laboratory testing including monitoring of kidney function.

[3] = molecular target: T1, human NMDAR subunits GluN1 and GluN2A (Homo sapiens, UniProt Q05586); test: NMDA receptor activation in automated patch clamp system (ScreenPatch), HEK293 cells; type: cell-based; details: 0.003 to 10 μM, Compound 100 versus D-serine
T1 construct: expressed in transfected cells; host or cells: HEK293
Protocol: Peak current and steady state current were measured. The activity at the NMDA receptor was indistinguishable for the two compounds.

[4] = Pharmacokinetic profile of Compound 100 versus non-deuterated D-serine in male Sprague-Dawley rats, 150 mg/kg PO; type: in vivo; details: fasted, plasma, mean
Description: (§1) The pharmacokinetic profile of Compound 100 was investigated in male Sprague-Dawley rats compared with that of non-deuterated D-serine. […] Plasma was collected and analyzed for Compound 100 and non-deuterated D-Serine. Additional blood was collected and analyzed for the full clinical chemistry profile.

[5] = Nephrotoxicity comparison of Compound 100 and non-deuterated D-serine at doses from 150 mg/kg to 750 mg/kg; type: in vivo, rats
[6] = Multiple Ascending Dose (MAD) study plasma PK, 7 consecutive days; details: for AUC(0-inf) / AUC(0-t) / Cmax / Tmax: human, plasma, po
Description: The caloric content of the meal was in accordance with the FDA guidance for food-effect studies.

[7] = Nephrotoxicity of Compound 100 and non-deuterated D-serine in male Sprague-Dawley rats, 150 mg/kg PO (BUN, creatinine, GGT); type: in vivo
Description: as §1

[8] = Safety and tolerability in single dose crossover study in healthy volunteers; type: in vivo, human; details: single 0.25 g oral dose
Description: Thirteen healthy volunteers between the ages of 18 to 55 were enrolled in the study.
Period 1 dosing occurred within 14 days of screening.

[9] = Randomized single dose crossover plasma PK of Compound 100 versus D-serine in healthy volunteers; type: in vivo, human
Protocol: Thirteen healthy volunteers between the ages of 18 to 55 were enrolled in the study. […] Period 1 dosing occurred within 14 days of screening. […] Similarly, in Period 2, the 2 subjects in the sentinel group received the alternate treatment after a 4-day washout and approximately 2 days prior to the remaining subjects receiving their Period 2 dose. […] Water consumption was restricted from 1 hour prior to dosing until 1 hour after dosing. Subjects fasted for approximately 3 hours after dosing and remained upright or semi-supine during this period. A meal was provided 3-4 hours after the dose. Meal times and contents were standardized until the last blood sample was collected for PK assessments. […] Plasma samples were stored in labeled tubes at approximately -80° C.

[10] = Safety and tolerability in SAD and MAD studies; type: in vivo, human
Protocol: The 0.5, 2, 3, and 4 g doses were evaluated under fasted conditions (after an overnight fast) while the 1 g dose was evaluated under both fasted and fed conditions (within 30 minutes of consumption of a meal) in a crossover design. […] Blood samples for PK analysis were obtained at several time points after dose administration. Safety assessments included monitoring of adverse events and clinical laboratory testing including monitoring of kidney function. Neurocognitive effects of CTP-692 using CogScreen® were also explored.

[11] = po, 0.5 g, 0.5 g single oral dose, fasted, arithmetic mean
[12] = po, 1 g, 1 g (fed) single oral dose, arithmetic mean
[13] = po, 1 g, 1 g single oral dose, fasted, arithmetic mean
[14] = po, 2 g, 2 g single oral dose, fasted, arithmetic mean
[15] = po, 3 g, 3 g single oral dose, fasted, arithmetic mean
[16] = po, 4 g, 4 g single oral dose, fasted, arithmetic mean
[17] = dose escalation 150 mg/kg to 750 mg/kg
[18] = human, plasma, single 0.25 g oral solution, fasted, mean, N = 11

[2H][C@@](N)(CO)C(=O)O [Compound 100, (2R)-2-amino-2-deutero-3-hydroxy-propanoic acid]
Cortex concentration [1]: 754 ng/g | Hippocampus concentration [1]: 674 ng/g | Plasma concentration [1]: 19200 ng/mL | CL/F ([2]; 0.5 g single oral dose, fasted, arithmetic mean): 6.17 L/h | CL/F ([2]; 1 g (fed) single oral dose, arithmetic mean): 5.99 L/h | CL/F ([2]; 1 g single oral dose, fasted, arithmetic mean): 6.28 L/h | CL/F ([2]; 2 g single oral dose, fasted, arithmetic mean): 6.56 L/h | CL/F ([2]; 3 g single oral dose, fasted, arithmetic mean): 6.68 L/h | CL/F ([2]; 4 g single oral dose, fasted, arithmetic mean): 6.69 L/h | half-life ([2]; oral, SAD and MAD studies, human plasma, read-out: terminal t1/2 (converted)): ~19 h | AUC(0-inf) [2, 11]: 82.2 µg·h/mL | Cmax [2, 11]: 11000 ng/mL | half-life ([2]; po, 0.5 g, 0.5 g single oral dose, fasted, arithmetic mean, read-out: t1/2 (converted)): 15.9 h | Tmax ([2]; po, 0.5 g, 0.5 g single oral dose, fasted): 1 h | AUC(0-inf) [2, 12]: 173 µg·h/mL | Cmax [2, 12]: 15300 ng/mL | half-life ([2]; po, 1 g, 1 g (fed) single oral dose, arithmetic mean, read-out: t1/2 (converted)): 17.9 h | Tmax ([2]; po, 1 g, 1 g (fed) single oral dose): 2 h | AUC(0-inf) [2, 13]: 164 µg·h/mL | Cmax [2, 13]: 22300 ng/mL | half-life ([2]; po, 1 g, 1 g single oral dose, fasted, arithmetic mean, read-out: t1/2 (converted)): 19.2 h | Tmax ([2]; po, 1 g, 1 g single oral dose, fasted): 1 h | AUC(0-inf) [2, 14]: 315 µg·h/mL | Cmax [2, 14]: 46300 ng/mL | half-life ([2]; po, 2 g, 2 g single oral dose, fasted, arithmetic mean, read-out: t1/2 (converted)): 20.2 h | Tmax ([2]; po, 2 g, 2 g single oral dose, fasted): 1 h | AUC(0-inf) [2, 15]: 489 µg·h/mL | Cmax [2, 15]: 69100 ng/mL | half-life ([2]; po, 3 g, 3 g single oral dose, fasted, arithmetic mean, read-out: t1/2 (converted)): 20.6 h | Tmax ([2]; po, 3 g, 3 g single oral dose, fasted): 1 h | AUC(0-inf) [2, 16]: 618 µg·h/mL | Cmax [2, 16]: 96500 ng/mL | half-life ([2]; po, 4 g, 4 g single oral dose, fasted, arithmetic mean, read-out: t1/2 (converted)): 18.4 h | Tmax ([2]; po, 4 g, 4 g single oral dose, fasted): 1 h | activity at the NMDA receptor (peak current and steady state current) [3]: indistinguishable | AUCinf [4]: 383 µg·h/mL | Cmax [4]: 186000 ng/mL | Tmax [4]: 0.667 h | exposure as measured by AUC and Cmax, compared with non-deuterated D-serine [5, 17]: greater | gross signs of nephrotoxicity [5, 17]: not Compound 100 | changes in BUN or creatinine ([5]; doses from 150 mg/kg to 750 mg/kg PO): minimal changes | Accumulation ([6]; following 7 consecutive days of administration): minimal to modest | dose-exposure relationship ([6]; following single and multiple doses (at Day 7)): linear | AUC(0-inf) ([6]; 1 g): 263 µg·h/mL | AUC(0-t) ([6]; 1 g): 175 µg·h/mL | Cmax ([6]; 1 g): 25300 ng/mL | Tmax ([6]; 1 g): 1.5 h | AUC(0-inf) ([6]; 2 g): 522 µg·h/mL | AUC(0-t) ([6]; 2 g): 333 µg·h/mL | Cmax ([6]; 2 g): 52000 ng/mL | Tmax ([6]; 2 g): 1 h | AUC(0-inf) ([6]; 4 g): 911 µg·h/mL | AUC(0-t) ([6]; 4 g): 539 µg·h/mL | Cmax ([6]; 4 g): 70800 ng/mL | Tmax ([6]; 4 g): 2 h | levels of biomarkers of nephrotoxicity [7]: did not increase | adverse events related to Compound 100 [8]: mild headache (1 subject) and fatigue (2 subjects) | serious adverse events [8]: no serious adverse events were reported | tolerability [8]: generally well tolerated | Tmax ([9]; human, plasma, single 0.25 g oral solution, fasted, N = 11): 1.5 h | AUC(0-inf) [9, 18]: 38.7 µg·h/mL | Cmax [9, 18]: 4550 ng/mL | half-life [9, 18]: 18.3 h | plasma exposure compared to D-serine ([9]; single 0.25 g oral dose): increased plasma exposure | CL/F ([9]; single 0.25 g oral solution, fasted, mean, N = 11): 6.6 L/h | effects on kidney function (serum and urine kidney function parameters) ([10]; SAD and MAD studies): no apparent Compound 100-related effects on kidney function | effects on other clinical laboratory parameters ([10]; SAD and MAD studies): no clinically significant Compound 100-related effects | most common treatment-related adverse event ([10]; SAD and MAD studies): headache | neurocognitive effects (CogScreen) ([10]; SAD and MAD studies, exploratory): no evidence of adverse effects on neurocognitive functioning | tolerability ([10]; SAD and MAD studies, healthy volunteers): well-tolerated | Compound 100-related adverse events ([10]; highest once-daily dose of 4 g, both studies): no Compound 100-related adverse events were reported
